The source of these data is ChEMBL document CHEMBL3351666, “Nocatriones A and B, photoprotective tetracenediones from a marine-derived Nocardiopsis sp” (J Nat Prod, 2014).

A word on the inhibition: it is the change of the read-out against control, counted positive when it falls.

Data set [1] is described as follows: Reduction in UVB radiation-induced MMP1 secretion in human MCTT MC1233 cells at 10 uM exposed to 144 mJ/cm2 UVB irradiation by ELISA method. It is filed as functional. As to conditions: MCTT MC1233, light or radiation study.
Data set [2] in a line: Reduction in MMP1 secretion in human ScienCell 2320 cells at 10 uM by ELISA method. In kind it is functional. (ELISA stands for enzyme-linked immunosorbent assay.)
Data set [3] is described as follows: Reduction in MMP1 secretion in human MCTT MC1233 cells at 5 uM by ELISA method. In kind it is functional.
In the next data set the test system is MCTT MC1233. The data set can be described thus: Reduction in UVB radiation-induced MMP1 secretion in human MCTT MC1233 cells exposed to 144 mJ/cm2 UVB irradiation by ELISA method. It is filed as functional, cell-based.
Data set [4] is described as follows: Cytotoxicity against human ScienCell 2320 cells exposed to 144 mJ/cm2 UVB irradiation assessed as reduction in cell viability at 1 to 10 uM incubated for 72 hrs by MTT assay. Conditions: sciencell 2320, 72 h. It is filed as cell-based. In general terms: Tetrazolium assays rely on reduction of a dye to a coloured formazan, in cell work by metabolically active cells.

Data set [5] in a line: Cytotoxicity against human MCTT MC1233 cells exposed to 144 mJ/cm2 UVB irradiation assessed as reduction in cell viability at 1 to 10 uM incubated for 72 hrs by MTT assay. It is filed as cell-based. Conditions: mctt mc1233, 72 h.
Data set [6] is described as follows: Reduction in UVB radiation-induced MMP1 secretion in human ScienCell 2320 cells at 10 uM exposed to 144 mJ/cm2 UVB irradiation by ELISA method. In kind it is functional. As to conditions: ScienCell 2320, light or radiation study.
The nature of data set [7]: Cytotoxicity against human MCTT MC1233 cells assessed as reduction in cell viability at 1 to 10 uM incubated for 72 hrs by MTT assay. In kind it is cell-based. Conditions: mctt mc1233, 72 h.
Data set [8] in a line: Reduction in MMP1 secretion in human MCTT MC1233 cells at 10 uM by ELISA method. It is filed as functional.
A short description of data set [9]: Cytotoxicity against human ScienCell 2320 cells assessed as reduction in cell viability at 1 to 10 uM incubated for 72 hrs by MTT assay. It is filed as cell-based. Conditions: sciencell 2320, 72 h.

With `Cc1c2c(cc(O)c1-c1cc(O)cc(=O)o1)C(=O)c1cc3cc(O)cc(O)c3c(O)c1C2=O`, the inhibition at 10 µM in [1] is 65%; in data set [2] it was 99%; in data set [6], 99%; in [8], 83%. The compound further came in with an inhibition at 5 µM in data set [3] of 58%. Moreover, the inhibition entry with MCTT MC1233 is “Dose-dependent effect”. In addition, the Activity result in [4], in [5], in [7] and in data set [9] was “Non-toxic” throughout.
Regarding `Cc1c(-c2cc(O)cc(=O)o2)c(O)cc2cc3c(c(O)c12)C(=O)c1c(O)cc(O)cc1C3=O`, the inhibition at 10 µM in data set [1] amounted to 18%; in data set [2] it was 93%; in [6] it was 91%. Moreover, the inhibition entry with MCTT MC1233 is “Dose-dependent effect”. The Activity entry in data set [4], in data set [5], in data set [7] and in data set [9] was “Non-toxic” each time.
